{
  "source": "BindingDB's records for doi:10.1016/s0960-894x(03)00298-1",
  "about": "(Cubist Pharmaceutical, 2003)",
  "key": {"[1]": {"biological_target": "Methionyl-tRNA synthetase (Enterococcus faecalis)", "assay": "Inhibitory activity against Enterococci faecalis methionyl-tRNA synthetase (EfMetRS)"}, "[2]": {"biological_target": "Methionyl-tRNA synthetase (Staphylococcus aureus)", "assay": "Inhibitory activity against Staphylococcus aureus methionyl-tRNA synthetase (SaMetRS)"}, "[3]": {"biological_target": "Methionyl-tRNA synthetase (Staphylococcus aureus)", "assay": "Inhibitory activity against Staphylococcus aureus methionyl-tRNA synthetase (SaMetRS)", "remark": "listed apart in the source"}, "[4]": {"biological_target": "Methionyl-tRNA synthetase (Staphylococcus aureus)", "assay": "Inhibitory activity against Staphylococcus aureus methionyl-tRNA synthetase (SaMetRS)", "remark": "listed apart in the source"}},
  "note": "pIC50: −log10 of the molar value.",
  "data": [
    {"compound": "O=C(O)c1cc(-c2ccc(-c3ccc(Cl)cc3Cl)cc2)n(Cc2ccccc2)n1", "note": "[1-Benzyl-5-(2',4'-dichloro-biphenyl-4-yl)-1H-pyrazole-3-carboxylic acid]", "values": [
      {"measurement": "pIC50", "setting": "[1]", "result": 4.52},
      {"measurement": "pIC50", "setting": "[2]", "result": 5.40}
    ]},
    {"compound": "O=C(O)Cn1nc(C(=O)O)cc1-c1ccc(-c2ccc(Cl)cc2Cl)cc1", "note": "[1-Carboxymethyl-5-(2',4'-dichloro-biphenyl-4-yl)-1H-pyrazole-3-carboxylic acid]", "values": [
      {"measurement": "pIC50", "setting": "[2]", "result": 5.47}
    ]},
    {"compound": "O=C(O)c1cc(-c2ccc(-c3ccc(Cl)cc3Cl)cc2)n(-c2ccc(Cl)cc2Cl)n1", "note": "[5-(2',4'-Dichloro-biphenyl-4-yl)-1-(2,4-dichloro-phenyl)-1H-pyrazole-3-carboxylic acid]", "values": [
      {"measurement": "pIC50", "setting": "[1]", "result": 5.05},
      {"measurement": "pIC50", "setting": "[3]", "result": 5.31}
    ]},
    {"compound": "O=C(O)c1cc(-c2ccc(-c3ccc(Cl)cc3Cl)cc2)n(CCO)n1", "note": "[5-(2',4'-Dichloro-biphenyl-4-yl)-1-(2-hydroxy-ethyl)-1H-pyrazole-3-carboxylic acid]", "values": [
      {"measurement": "pIC50", "setting": "[1]", "result": 4.94},
      {"measurement": "pIC50", "setting": "[4]", "result": 5.35}
    ]},
    {"compound": "COc1ccccc1-n1nc(C(=O)O)cc1-c1ccc(-c2ccc(Cl)cc2Cl)cc1", "note": "[5-(2',4'-Dichloro-biphenyl-4-yl)-1-(2-methoxy-phenyl)-1H-pyrazole-3-carboxylic acid]", "values": [
      {"measurement": "pIC50", "setting": "[1]", "result": 4.75},
      {"measurement": "pIC50", "setting": "[2]", "result": 5.82}
    ]},
    {"compound": "COc1ccc(-n2nc(C(=O)O)cc2-c2ccc(-c3ccc(Cl)cc3Cl)cc2)cc1", "note": "[5-(2',4'-Dichloro-biphenyl-4-yl)-1-(4-methoxy-phenyl)-1H-pyrazole-3-carboxylic acid]", "values": [
      {"measurement": "pIC50", "setting": "[2]", "result": 4.98}
    ]},
    {"compound": "CCn1nc(C(=O)O)cc1-c1ccc(-c2ccc(Cl)cc2Cl)cc1", "note": "[5-(2',4'-Dichloro-biphenyl-4-yl)-1-ethyl-1H-pyrazole-3-carboxylic acid]", "values": [
      {"measurement": "pIC50", "setting": "[2]", "result": 5.99}
    ]},
    {"compound": "O=C(O)c1cc(-c2ccc(-c3ccc(Cl)cc3Cl)cc2)n(-c2ccccc2)n1", "note": "[5-(2',4'-Dichloro-biphenyl-4-yl)-1-phenyl-1H-pyrazole-3-carboxylic acid]", "values": [
      {"measurement": "pIC50", "setting": "[3]", "result": 5.26}
    ]},
    {"compound": "NC(=O)c1cc(-c2ccc(-c3ccc(Cl)cc3Cl)cc2)n(-c2ccccn2)n1", "note": "[5-(2',4'-Dichloro-biphenyl-4-yl)-1-pyridin-2-yl-1H-pyrazole-3-carboxylic acid amide]", "values": [
      {"measurement": "pIC50", "setting": "[4]", "result": 5.53}
    ]},
    {"compound": "O=C(O)c1cc(-c2ccc(-c3ccc(Cl)cc3Cl)cc2)n(-c2ccccn2)n1", "note": "[5-(2',4'-Dichloro-biphenyl-4-yl)-1-pyridin-2-yl-1H-pyrazole-3-carboxylic acid]", "values": [
      {"measurement": "pIC50", "setting": "[1]", "result": 5.71},
      {"measurement": "pIC50", "setting": "[4]", "result": 6.20}
    ]},
    {"compound": "O=C(NCc1nnn[nH]1)c1cc(-c2ccc(-c3ccc(Cl)cc3Cl)cc2)n(-c2cccnc2)n1", "note": "[5-(2',4'-Dichloro-biphenyl-4-yl)-1-pyridin-3-yl-1H-pyrazole-3-carboxylic acid (1H-tetrazol-5-ylmethyl)-amide]", "values": [
      {"measurement": "pIC50", "setting": "[1]", "result": 5.43},
      {"measurement": "pIC50", "setting": "[4]", "result": 6.89}
    ]},
    {"compound": "O=C(O)c1cc(-c2ccc(-c3ccc(Cl)cc3Cl)cc2)n(-c2cccnc2)n1", "note": "[5-(2',4'-Dichloro-biphenyl-4-yl)-1-pyridin-3-yl-1H-pyrazole-3-carboxylic acid]", "values": [
      {"measurement": "pIC50", "setting": "[4]", "result": 6.52}
    ]},
    {"compound": "O=C(O)c1cc(-c2ccc(-c3ccc(Cl)cc3Cl)cc2)n(Cc2cccnc2)n1", "note": "[5-(2',4'-Dichloro-biphenyl-4-yl)-1-pyridin-3-ylmethyl-1H-pyrazole-3-carboxylic acid]", "values": [
      {"measurement": "pIC50", "setting": "[3]", "result": 6.18}
    ]},
    {"compound": "O=C(O)c1cc(-c2ccc(-c3ccc(Cl)cc3Cl)cc2)n(Cc2ccncc2)n1", "note": "[5-(2',4'-Dichloro-biphenyl-4-yl)-1-pyridin-4-ylmethyl-1H-pyrazole-3-carboxylic acid]", "values": [
      {"measurement": "pIC50", "setting": "[3]", "result": 6.30}
    ]},
    {"compound": "O=C(O)c1cc(-c2ccc(-c3ccc(Cl)cc3Cl)cc2)nn1Cc1ccccn1", "note": "[5-(2',4'-Dichloro-biphenyl-4-yl)-2-pyridin-2-ylmethyl-2H-pyrazole-3-carboxylic acid]", "values": [
      {"measurement": "pIC50", "setting": "[3]", "result": 5.57}
    ]},
    {"compound": "O=C(O)c1cc(-c2ccc(-c3ccc(F)c(Cl)c3)cc2)n(-c2ccc(Cl)cc2Cl)n1", "note": "[5-(3'-Chloro-4'-fluoro-biphenyl-4-yl)-1-(2,4-dichloro-phenyl)-1H-pyrazole-3-carboxylic acid]", "values": [
      {"measurement": "pIC50", "setting": "[3]", "result": 4.76}
    ]},
    {"compound": "O=C(O)c1cc(-c2ccc(-c3ccccc3)cc2)n(-c2ccc(Cl)cc2Cl)n1", "note": "[5-Biphenyl-4-yl-1-(2,4-dichloro-phenyl)-1H-pyrazole-3-carboxylic acid]", "values": [
      {"measurement": "pIC50", "setting": "[3]", "result": 4.39}
    ]}
  ]
}
